From patent US20160089343A1 (LSU Health Sciences Center Shreveport, priority 2014, published 2016)
Entries after “also recorded” stand apart in the source; their conditions may differ.

Assays:
[1] = tested on: tumor formation; assay: Model of minimal residual disease; type: in vivo
[2] = tested on: mTOR pathway markers; assay: Phase 2 biomarker exploratory trial in HNSCC patients; type: in vivo, human
Description: Criteria #1) Biomarker expression in normal tissue should be different from that in high risk tissue. In FIG. 2 we present an analysis of cancer (lanes 5, 6, 11, and 12) and non-cancer (patients with sleep apnea) (lanes 1-4 and 7-10) patient samples. The cancer samples include tumors (T) and histologically tumor-free margins (M). […] Criteria #2) Biomarkers can be detected in small tissue specimens. In our studies we have successfully detected by western blots and even by IHC the various Akt/mTOR markers on samples often as small as 5 mm. Criteria #3) Biomarkers can be expressed in a quantity or pattern that can be correlated with the stage of carcinogenesis.

[3] = tested on: HNSCC cell lines; assay: HNSCC cell lines screened for sensitivity to curcumin (cell proliferation); type: cell-based; conditions: for sensitivity of a variety of cell lines: spread of sensitivity across cell lines
[4] = tested on: pNFκB or Akt/mTOR in CCL110 cells; assay: Modulation of NFκB and Akt/mTOR pathways, CCL110 normal fibroblasts; type: cell-based; conditions: CCL110, 10 μM curcumin, 24 and 48 hours
[5] = tested on: tumor cells; assay: Chemoprevention model: pre-treatment before injecting tumor cells, tumor volume; type: in vivo, Balb/c nu/nu mice; conditions: from 4 days before tumor cells, about three weeks
Protocol: Balb/c nu/nu mice were randomized into treatment groups. […] Tumors were measured over approximately three weeks. […] ANOVA analysis. […] This also points to its role as a chemopreventive agent rather than a therapeutic agent.

[6] = tested on: Akt/mTOR pathway in SCC066 cells; assay: Modulation of NFκB and Akt/mTOR pathways, SCC066 cells; type: cell-based; conditions: SCC066, 10 μM curcumin, 24 and 48 hours
[7] = tested on: pAkt and pS6 in SCC40 xenografts; assay: pAkt and pS6 in SCC40 xenografts of curcumin-treated mice; type: in vivo; conditions: mice with SCC40 xenografts treated with curcumin
[8] = tested on: prostate cancer xenograft; conditions: p.o. gavage 5 mg/day, 5 days/week for 4 weeks; cited from earlier work
[9] = tested on: NFκB and Akt/mTOR pathways in PCI15a cells; assay: Modulation of NFκB and Akt/mTOR pathways, PCI15a cells; type: cell-based; conditions: 10 μM curcumin
[10] = tested on: normal fibroblast cell line CCL110; assay: Cell proliferation in the normal fibroblast cell line; type: cell-based; conditions: CCL110, in vitro
[11] = tested on: AKT/mTOR pathway, FGF-2 and MMP-9 in HNSCC cell lines; assay: Biomarkers in HNSCC cell lines (earlier work); type: cell-based
Description: Also, identifying a consistent biomarker that can be validated in chemoprevention trials is critical, as the occurrence of cancer as an end point could take years. […] Acquiring the angiogenic phenotype by premalignant cells is the a critical step in carcinogenesis and FGF-2 is one of the most important angiogenic markers. Oral dysplasias are characterized by deregulations (DNA amplification and homozygous deletion) of multiple components of the FGF signaling network. […] GM-CSF promotes proliferation of endothelial progenitor cells, induces endothelial capillary formation via stimulation of MMP expression and activates JAK2/STAT-3 pathway. IL-17, besides its function as immune marker, is also implicated in stimulating angiogenesis.

[12] = tested on: DMBA-induced oral tumors; conditions: topical 10 μmol curcumin to cheek pouch 3 times/week for 24 weeks; cited from earlier work
[13] = tested on: TPA-induced tumors on mouse skin; conditions: topical 10 μmol curcumin twice weekly; cited from earlier work
[14] = tested on: NFκB and Akt/mTOR pathways in SCC40 cells; assay: Modulation of NFκB and Akt/mTOR pathways, SCC40 cells; type: cell-based; conditions: SCC40, 10 μM curcumin

Compound: CO[C@H]1C[C@@H]2CC[C@@H](C)[C@@](O)(O2)C(=O)C(=O)N2CCCC[C@H]2C(=O)O[C@H]([C@H](C)C[C@@H]2CC[C@@H](OC(=O)C(C)(CO)CO)[C@H](OC)C2)CC(=O)[C@H](C)/C=C(\C)[C@@H](O)[C@@H](OC)C(=O)[C@H](C)C[C@H](C)/C=C/C=C/C=C/1C [CCI-779, temsirolimus]
- survival [1]: improve survival
- tumor formation [1]: inhibit tumor formation
- mTOR pathway markers in tumors and PBMCs [2]: modulation of these markers

Compound: CO[C@H]1C[C@@H]2CC[C@@H](C)[C@@](O)(O2)C(=O)C(=O)N2CCCC[C@H]2C(=O)O[C@H]([C@H](C)C[C@@H]2CC[C@@H](OCCO)[C@H](OC)C2)CC(=O)[C@H](C)/C=C(\C)[C@@H](O)[C@@H](OC)C(=O)[C@H](C)C[C@H](C)/C=C/C=C/C=C/1C [RAD001, everolimus]
- sensitivity of a variety of cell lines [3]: wide range of sensitivity

Compound: COc1cc(/C=C/C(=O)CC(=O)/C=C/c2ccc(O)c(OC)c2)ccc1O [curcumin]
- pNFκB or Akt/mTOR [4]: no decrease
- tumor volume versus control (vehicle treated) ([5]; 10 mg curcumin): no significant difference
- tumor volume versus control (vehicle treated) ([5]; 15 mg curcumin, p=0.007, mixed ANOVA): statistically significant difference
- Akt/mTOR pathway [6]: did not show any modulation
- pAkt in xenografts [7]: significant decrease
- pS6 in xenografts [7]: significant decrease
- inhibition of growth of prostate cancer xenograft [8]: ~50%
- pNFκB ([9]; 24 and 48 hours): no change
- pAkt ([9]; 48 hours): down-regulated
- pS6 downstream of mTOR ([9]; 48 hours): down-regulated
- dose required to see effects in normal fibroblasts [10]: 20 to 40 µM
- growth inhibitory effect ([3]; all 10 HNSCC cell lines tested to date): growth inhibitory effects
- effect on cell proliferation ([3]; all HNSCC cell lines, 10 μM curcumin): inhibition of cell proliferation
- anti-proliferative effect ([3]; panel of nine HNSCC cell lines, earlier work): robust anti-proliferative effects
- sensitivity of a variety of cell lines [3]: consistently sensitive
- growth inhibitory effect ([3]; three HNSCC cell lines (PCI15a, SCC40, SCC066), 10 μM, 48 hours): significant growth inhibitory effects
- curcumin concentration giving consistent inhibition of cell proliferation ([3]; variety of HNSCC cell lines, in vitro): less than 10 μM
- FGF-2 expression in HNSCC cells ([11]; p<0.001): downregulation; also recorded: significant inhibition
- AKT/mTOR pathway in HNSCC cell lines ([11]; panel of nine HNSCC cell lines): inhibition
- MMP-9 in HNSCC cell lines ([11]; panel of nine HNSCC cell lines): downregulation
- reduction of the number of DMBA-induced oral tumors [12]: ~40%
- inhibition of the number of tumors per mouse [13]: 98%
- Akt/mTOR pathway ([14]; 24 and 48 hours): no change
- pNFκB ([14]; 48 hours): down-regulation
